# Several values for one entry are separate records, joined by “and”; a condition that tells them apart may be missing. Identical values can stand only once. Like-named read-outs stand apart in the source and are kept apart here.
# What was measured:
# CYP2D6 [1] = molecular target: T1, CYP2D6 (Homo sapiens, UniProt P10635); settings: read-out: Ki for inhibition of dextromethorphan O-demethylation; HLMs; ref Bertelsen et al. (2003); cited from earlier work
# [2] = design: method as in gsk-clinicalstudyregister.com study 29060/474; settings: patients receiving 40 mg/d paroxetine; ref gsk-clinicalstudyregister.com study 29060/474; cited from earlier work
# murine plasma proteins = tested on: murine plasma proteins; design: method as in van Harten, 1993; Qin et al., 2016; settings: mouse plasma; ref van Harten, 1993; Qin et al., 2016; cited from earlier work
# [3] = design: method as in Chang et al., 2016; settings: hPXR/hCAR/h3A4/3A7/2D6 mice, single dose of 20 mg/kg tamoxifen; ref Chang et al., 2016; cited from earlier work
# estrogen receptor (ER) = tested on: estrogen receptor (ER); design: method as in Johnson et al., 2004; settings: ref Johnson et al., 2004; cited from earlier work
# [4] = Preliminary single oral dose of tamoxifen in hCYP2D6 mice, blood metabolite concentrations; format: in vivo; settings: single 15-mg/kg oral dose of tamoxifen; for Cmax: hCYP2D6 (CYP2D6-humanized mouse line), mouse, blood, preliminary, data not shown
# CYP2D6 [5] = molecular target: T1, CYP2D6; settings: female, hCYP2D6 (mice humanized for CYP2D6), mouse, in vivo
# Method: All animal work was carried out on 8- to 12-week-old female mice. […] NDT was suspended in corn oil at 2 mg/ml for oral administration at 10 mg/kg (5 µl/g body weight). For sample collection for pharmacokinetic (PK) analysis, 10 µl whole blood was withdrawn from the tail vein at the indicated time points. Samples were immediately added to a tube containing heparin solution (10 µl, 15 IU/ml) and stored at −20°C until processing.
# In vivo PK samples were thawed by the addition of 70 µl acetonitrile containing the internal standard (tamoxifen-d5 at 0.2 µg/ml). After incubation on ice for 10 minutes, in vivo and in vitro samples were vortexed (5 seconds) and centrifuged for 10 minutes at 16,000g. The supernatant was added to 96-well plates for liquid chromatography (LC)–tandem mass spectrometry (MS/MS).
# Analysis of in vitro incubation and in vivo blood PK samples was carried out on a Waters Acquity ultra-performance LC system and a Micromass Quattro Premier mass spectrometer (both Micromass, Manchester, UK). […] Acquired data were analyzed in QuanLynx (Waters, Milford, MA) relative to analyte standard curves spanning the range of concentrations under study.
# Plasma levels of both of these compounds, and of endoxifen, were monitored over the following 48-hour period.
# CYP1A2 = test: Correlation of NDT hydroxylation with P450 probe substrate metabolism in panel of 13 HLMs (1A2); format: in vitro ADME, human; settings: 1A2, Phenacetin O-deethylation
# Method: (§1) All in vitro analyses were carried out in 100 mM potassium phosphate buffer, pH 7.4, containing 3.3 mM MgCl2, with agitation at 400 rpm at 37°C on a thermoshaker. All samples were handled in amber tubes under conditions of subdued light for the duration of the procedure. […] All subsequent assays were carried out under the same conditions, irrespective of the microsome source, with 5 µM N-desmethyltamoxifen (NDT) as substrate. […] Solvent (methanol) concentrations were 0.2% or lower in all incubations.
# (§2) Spearman’s rank correlations and inhibition parameters of ADs were calculated using GraphPad Prism software (version 6; GraphPad Inc., La Jolla, CA).
# CYP2C8 = test: Correlation of NDT hydroxylation with P450 probe substrate metabolism in panel of 13 HLMs (2C8); format: in vitro ADME, human; settings: 2C8, Paclitaxel 6α-hydroxylation
# Method: as §1, §2
# [6] = Preliminary tolerability of single doses of NDT in mice; format: in vivo; settings: single doses of NDT required to achieve about 200 ng/ml, data not shown
# [7] = Endoxifen formation from NDT in Cyp2dKO mouse liver microsomes; format: in vitro ADME; settings: 5 µM NDT as substrate
# Method: as §1
# CYP2E1 = test: Correlation of NDT hydroxylation with P450 probe substrate metabolism in panel of 13 HLMs (2E1); format: in vitro ADME, human; settings: 2E1, Chlorzoxazone 6-hydroxylation
# Method: (§3) All in vitro analyses were carried out in 100 mM potassium phosphate buffer, pH 7.4, containing 3.3 mM MgCl2, with agitation at 400 rpm at 37°C on a thermoshaker. All samples were handled in amber tubes under conditions of subdued light for the duration of the procedure. […] Assays to determine the apparent kinetic parameters of endoxifen formation in hCYP2D6 mouse liver microsomes (MLMs) were performed in triplicate under conditions of linearity for time (6 minutes) and hCYP2D6 protein (0.0625 mg/ml). All subsequent assays were carried out under the same conditions, irrespective of the microsome source, with 5 µM N-desmethyltamoxifen (NDT) as substrate. […] Solvent (methanol) concentrations were 0.2% or lower in all incubations.
# as §2
# CYP2D6 [8] = molecular target: T1, CYP2D6; test: Correlation of NDT hydroxylation with P450 probe substrate metabolism in panel of 13 HLMs (2D6); format: in vitro ADME; design: Assays to determine the apparent kinetic parameters of endoxifen formation in hCYP2D6 mouse liver microsomes (MLMs) were performed in triplicate; tissue Taconic (animals); host or cells: liver microsomes pooled from four hCYP2D6 (CYP2D6-humanized, murine Cyp2d deleted) mice; settings: 2D6, Bufuralol 1′-hydroxylation
# Method: as §3, §2
# CYP2D6 [9] = molecular target: T1, CYP2D6; design: Assays to determine the apparent kinetic parameters of endoxifen formation in hCYP2D6 mouse liver microsomes (MLMs) were performed in triplicate; tissue Taconic (animals); host or cells: liver microsomes pooled from four hCYP2D6 (CYP2D6-humanized, murine Cyp2d deleted) mice; method as in Desta et al. (2004); settings: two individual HLM preparations; ref Desta et al. (2004); read-out: Km (endoxifen formation); cited from earlier work
# CYP2A6 = test: Correlation of NDT hydroxylation with P450 probe substrate metabolism in panel of 13 HLMs (2A6); format: in vitro ADME, human; settings: 2A6, Coumarin 7-hydroxylation
# Method: as §1, §2
# CYP3A4 = test: Correlation of NDT hydroxylation with P450 probe substrate metabolism in panel of 13 HLMs (3A4); format: in vitro ADME, human; settings: 3A4, Testosterone 6β-hydroxylation
# Method: as §1, §2
# CYP2D6 [10] = molecular target: T1, CYP2D6; test: Apparent kinetic parameters of endoxifen formation from NDT in hCYP2D6 mouse liver microsomes; format: in vitro ADME; design: Assays to determine the apparent kinetic parameters of endoxifen formation in hCYP2D6 mouse liver microsomes (MLMs) were performed in triplicate; tissue Taconic (animals); host or cells: liver microsomes pooled from four hCYP2D6 (CYP2D6-humanized, murine Cyp2d deleted) mice; settings: hCYP2D6 MLMs 0.0625 mg/ml, 6 min, substrate inhibition model
# Method: as §3, §2
# [11] = 2013, Jager et al., 2014, cited from earlier work
# CYP2C9 = test: Correlation of NDT hydroxylation with P450 probe substrate metabolism in panel of 13 HLMs (2C9); format: in vitro ADME, human; settings: 2C9, Diclofenac 4′-hydroxylation
# Method: as §3, §2
# CYP2B6 = test: Correlation of NDT hydroxylation with P450 probe substrate metabolism in panel of 13 HLMs (2B6); format: in vitro ADME, human; settings: 2B6, S-mephenytoin N-demethylation
# Method: as §1, §2
# CYP2C19 = test: Correlation of NDT hydroxylation with P450 probe substrate metabolism in panel of 13 HLMs (2C19); format: in vitro ADME, human; settings: 2C19, S-mephenytoin 4′-hydroxylation
# Method: as §3, §2
# CYP2D6 [12] = molecular target: T1, CYP2D6; test: biochemical
# Method: as §1, §2
# E0771 cells = test: Estradiol dependence of E0771 cell growth in vitro; format: cell-based, mouse; settings: Supplemental Fig. 2
# T1 sequence (P10635 whole entry): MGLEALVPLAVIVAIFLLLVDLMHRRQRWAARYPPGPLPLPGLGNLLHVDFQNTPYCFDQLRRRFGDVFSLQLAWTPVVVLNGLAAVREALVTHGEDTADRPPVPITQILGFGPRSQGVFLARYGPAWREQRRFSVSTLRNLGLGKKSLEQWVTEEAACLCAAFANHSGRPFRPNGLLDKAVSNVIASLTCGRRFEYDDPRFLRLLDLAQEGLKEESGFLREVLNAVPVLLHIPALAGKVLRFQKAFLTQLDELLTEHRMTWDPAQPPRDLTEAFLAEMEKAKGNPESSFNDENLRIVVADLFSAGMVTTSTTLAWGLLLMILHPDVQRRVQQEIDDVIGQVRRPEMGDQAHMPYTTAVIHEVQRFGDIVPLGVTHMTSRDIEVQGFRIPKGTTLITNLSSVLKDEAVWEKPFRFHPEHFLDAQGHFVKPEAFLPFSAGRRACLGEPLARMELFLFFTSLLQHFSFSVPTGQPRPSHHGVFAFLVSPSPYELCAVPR
smiles,measurement,setting,value
Fc1ccc([C@@H]2CCNC[C@H]2COc2ccc3c(c2)OCO3)cc1 [paroxetine],Ki,CYP2D6 [1],360 nM
same,steady-state Cmax,[2],approximately 150 ng/ml
same,binding with murine plasma proteins,murine plasma proteins,> 96%
"CC/C(=C(\c1ccc(O)cc1)c1ccc(OCCN(C)C)cc1)c1ccccc1 [4-HT, 4-hydroxytamoxifen]",4-HT levels relative to NDT,[3],5.4 fold
same,Cmax,[3],248 ng/mL
same,potency as estrogen receptor (ER) antagonist relative to the parent compound (tamoxifen),estrogen receptor (ER),up to 100 times
same,Cmax,[4],235 ng/mL
same,blood concentration of 4-HT relative to NDT,[4],2.7 fold
"CC/C(=C(\c1ccc(O)cc1)c1ccc(OCCNC)cc1)c1ccccc1 [endoxifen, 4-hydroxy-N-desmethyltamoxifen]",potency as estrogen receptor (ER) antagonist relative to the parent compound (tamoxifen),estrogen receptor (ER),up to 100 times
same,endoxifen levels in hCYP2D6 mice relative to human subjects,CYP2D6 [5],2.5-13 fold
"CC/C(=C(\c1ccccc1)c1ccc(OCCNC)cc1)c1ccccc1 [NDT, N-desmethyltamoxifen]",SRCC with NDT Hydroxylation,CYP1A2,−0.289
same,SRCC with NDT Hydroxylation,CYP2C8,0.380
same,Cmax,[3],46 ng/mL
same,tolerability of single doses,[6],not well tolerated by all animals
same,endoxifen formation by Cyp2dKO liver microsomes,[7],did not produce detectable levels
same,SRCC with NDT Hydroxylation,CYP2E1,0.311
same,SRCC with NDT Hydroxylation,CYP2D6 [8],0.698
same,Km,CYP2D6 [9],4.5 µM and 5.9 µM
same,SRCC with NDT Hydroxylation,CYP2A6,0.161
same,Cmax,[4],86 ng/mL
same,SRCC with NDT Hydroxylation,CYP3A4,−0.005
same,"KS1 (apparent, endoxifen formation from NDT)",CYP2D6 [10],5.1 ± 0.4 µM
same,"KS2 (apparent, endoxifen formation from NDT)",CYP2D6 [10],3.9 ± 0.3 µM
same,mean steady-state concentration in patient serum,"[11]; patients on tamoxifen, ref Stearns et al., 2003, Madlensky et al., 2011, Lien et al.",approximately 200 ng/ml
same,average blood plasma steady-state Cmax,"[11]; patients receiving 20 mg tamoxifen per day, ref Lien et al.",approximately 200 ng/ml
same,SRCC with NDT Hydroxylation,CYP2C9,0.526
same,SRCC with NDT Hydroxylation,CYP2B6,0.572
same,SRCC with NDT Hydroxylation,CYP2C19,−0.220
CN(C)CCC=C1c2ccccc2CCc2ccccc21 [amitriptyline],Ki,CYP2D6 [12],720 nM
C[C@]12CC[C@@H]3c4ccc(O)cc4CC[C@H]3[C@@H]1CC[C@@H]2O [estradiol],dependence of E0771 cell growth on estradiol,E0771 cells,no dependence whatsoever

# From article PMC5193068, “Application of Mice Humanized for CYP2D6 to the Study of Tamoxifen Metabolism and Drug–Drug Interaction with Antidepressants” (Drug Metabolism and Disposition, 2017)
